# Assays:
# WI-38 cells = assay: Scratch wound assay in WI-38 cells; type: cell-based, human; conditions: serum free media; Cytochalasin D 0.1 μM, R281 100 μM, Z DON 10 μM and 100 μM, Cub7402 5 μg/ml
# Procedure: WI-38 cells (normal human lung fibroblasts ATCC cat#CCL-75) were plated in a 96 well Image Lock plate (Essen cat#4379) at 2×10^4/well in αMEM media (Life Technologies cat#32561) with 10% FBS and grown O/N to >97% confluence. Cells were washed 2× with αMEM media without serum and a scratch wound was generated using an Essen Wound Maker and the manufacturers protocol. The media was removed and replaced with 95 μl/well serum free media. Controls and test antibodies were added to the wells. The plate was placed in an Essen Incucyte and the closure of the wound was analysed using the scratch wound protocol.
# Cytochalasin D was used as an assay control at 0.1 μM. R281, a small molecule non-specific transglutaminase inhibitor, was tested at 100 μM. Z DON, a peptide non reversible transglutaminase inhibitor was tested at 10 μM and 100 μM. The commercially available TG2 antibody Cub7402 (ABcam cat#ab2386) was tested at 5 μg/ml. Antibodies of the invention were tested on at least three occasions at various concentrations as indicated. In all experiments controls were Cytochalasin D at 0.1 uM and ZDON at two concentrations to show a dose dependant effect.
# [1] = target: T1, extracellular TG2 in human HK-2 cells (Homo sapiens, UniProt P21980); assay: Extracellular TG activity in HK-2 cells, biotin cadaverine incorporation into fibronectin (Example 1); type: cell-based; conditions: 400 μM of the site-specific pan TG inhibitor 1,3-Dimethyl-2-[(2-oxo-propyl)thio]imidazolium chloride
# T1 construct: endogenous in cells; host or cells: HK-2 (kidney proximal tubular epithelium)
# T1 sequence (P21980 1-687): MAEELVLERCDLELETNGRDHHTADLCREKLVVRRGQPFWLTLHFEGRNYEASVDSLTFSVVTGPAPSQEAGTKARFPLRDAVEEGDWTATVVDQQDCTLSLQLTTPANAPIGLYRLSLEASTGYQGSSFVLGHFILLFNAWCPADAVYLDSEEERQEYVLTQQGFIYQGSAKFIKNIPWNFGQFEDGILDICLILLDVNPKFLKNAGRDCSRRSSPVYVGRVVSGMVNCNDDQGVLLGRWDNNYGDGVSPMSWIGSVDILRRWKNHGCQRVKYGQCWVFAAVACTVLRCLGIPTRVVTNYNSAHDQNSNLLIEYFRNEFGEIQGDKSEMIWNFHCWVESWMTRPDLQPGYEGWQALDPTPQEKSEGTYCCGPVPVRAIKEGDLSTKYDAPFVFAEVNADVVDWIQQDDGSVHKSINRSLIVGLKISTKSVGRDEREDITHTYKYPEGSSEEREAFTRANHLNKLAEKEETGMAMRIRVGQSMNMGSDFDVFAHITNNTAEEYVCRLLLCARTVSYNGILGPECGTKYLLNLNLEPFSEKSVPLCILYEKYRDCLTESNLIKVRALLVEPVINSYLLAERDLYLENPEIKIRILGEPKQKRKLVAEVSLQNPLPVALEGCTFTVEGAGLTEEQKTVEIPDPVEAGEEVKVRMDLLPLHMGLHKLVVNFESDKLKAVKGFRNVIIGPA
# Procedure: HK2 cells were plated onto fibronectin and incubated for 2 hours in the presence of 0.1M biotin cadaverine with either 4 ng/μl of human anti-TG2 antibody (AB1) (part A), 4 ng/μl of human anti-TG2 antibody (DC1) (part B) or 400 μM of the site-specific pan TG inhibitor 1,3-Dimethyl-2-[(2-oxo-propyl)thio]imidazolium chloride. […] Changes in optical density were measured at 450 nm in a 96 well plate reader. Data represents mean OD at 450 nm corrected to 1 mg of cell protein. n=6 wells per experimental group.
# Extracellular TG activity was measured by modified cell ELISA. HK-2 epithelial cells were harvested using 0.1M EDTA or 0.25% trypsin/EDTA and plated at a density of 8×10^4 cells/well in serum free medium onto a 96 well plate that had been coated overnight with 100 μl/well of fibronectin (5 μg/ml in 50 mM Tris-HCl pH 7.4) (Sigma, Poole UK). Cells were allowed to attach for 2.5 h at 37° C. in the presence of the 0.1 mM biotin cadaverine [N-(5 amino pentyl biotinamide) trifluoroacetic acid] (Molecular Probes, Eugene Oreg., USA). Plates were washed twice with 3 mM EDTA/PBS and cells removed with 0.1% (w/v) deoxycholate in 5 mM EDTA/PBS. The supernatant was collected and used for protein determination. […] The reaction was stopped with 50 μl 2.5 M H2SO4 and the absorbance read at 450 nm.
inhibition of extracellular TG activity relative to AB1 and DC1 [1],SMILES,effect on wound closure (WI-38 cells)
–,"C=C1[C@@H](C)[C@H]2[C@H](Cc3ccccc3)NC(=O)[C@]23[C@H](OC(C)=O)/C=C/[C@@](C)(O)C(=O)[C@@H](C)C/C=C/[C@H]3[C@@H]1O [Cytochalasin D, reference compound]",inhibited wound closure
comparable,"CC(=O)CSc1n(C)cc[n+]1C.[Cl-] [1,3-Dimethyl-2-[(2-oxo-propyl)thio]imidazolium chloride, reference compound]",–
